According to patent US10807992B2, “Single enantiomer antiparasitic compounds” (priority 2017, dated 2020):
Like-named read-outs stand apart in the source and are kept apart here.

Assays:
[1] = Plasma PK from oral tick and flea efficacy studies of the C1 racemate; assay type: in vivo, Mongrel dogs; conditions: for Cmax / AUC(0-t) / AUC(0-inf) / half-life / CL/F / Tmax: mongrel, dog, po; for Cmax / AUC(0-t) / AUC(0-inf) / half-life / CL/F / Tmax / tlast: plasma; for AUC(0-t): read-out: NCA AUC0-last
Source text: However, the S- enantiomer plasma PK curves and calculated PK parameters conducted in beagle dogs differed from oral efficacy studies conducted on the racemate dosed in mongrels.
Pharmacokinetic results from the compound C1 (S) enantiomer PK study differed from racemic efficacy studies. Average plasma pharmacokinetic parameters from the compound C1 (S) enantiomer PK study described in this document are compared to those from oral efficacy studies of the racemate in Table 6.

Rhipicephalus sanguineus = assay: In vitro contact activity against adult ticks (coated vial), R. sanguineus; conditions: for mortality at 0.006 µM: Trial 3, dose 0.006 μM; for mortality at 0.024 µM: Trial 3, dose 0.024 μM; for mortality at 0.098 µM: Trial 3, dose 0.098 μM; for mortality at 0.39 µM: Trial 3, dose 0.39 μM; for mortality at 1.56 µM: Trial 3, dose 1.56 μM; for mortality at 6.25 µM: Trial 3, dose 6.25 μM; for mortality at 25 µM: Trial 3, dose 25 μM; for mortality at 100 µM: Trial 3, dose 100 μM
Procedure: Rhipicephalus sanguineus, Dermacentor variabilis, Amblyomma americanum, (Ecto Services, Inc., Henderson, N.C.) and Ixodes scapularis (Oklahoma State University, Stillwater, Okla.) aged between 2-4 weeks post molt were held in an environmental chamber at 24° C., 80% humidity with 12-hour light/dark cycles.
For tick assays, vial caps were pre-drilled with a single hole in the center of each cap to allow air exchange. A filter paper (Whatman Grade 540 2.1 cm) was placed in the lid of each vial. An aliquot from each compound stock was added to an acetone/triton solution to achieve the desired top doses for the study. Serial dilutions were conducted from the top dose (i.e. 100 ppm) to achieve the desired titration range for EC50 and EC90 determination. For R. sanguineus, D. variabilis, and A. americanum, the final DMSO concentration in each test vial was 0.5%. For I. scapularis, compounds were solubilized directly in an acetone/triton solution due to I. scapularis' sensitivity to DMSO. A 459 μL aliquot of each compound formulation was transferred to a vial containing a Whatman Grade 540 2.1 cm filter paper. Vials were immediately placed on an unheated roller unit to allow for an even coating of the vial walls. After vials were coated, 41 μL of each compound formulation was added to the filter paper embedded in each vial cap. Each cap was allowed to dry. The vials were loosely capped and allowed to dry for a minimum of four hours in a chemical fume hood.
Compounds tested were: the C1 racemate, C1 (R) enantiomer, and the C1 (S) enantiomer. For Trial 3, the C1 (R) enantiomer and the C1 (S) enantiomer were further chiral purified to achieve >99% purity.
Ten adult ticks were added to each vial and held at 24° C., 80% humidity with 12-hour light/dark cycles. Adult ticks were assessed for percent mortality at various time points between 2 hours and 48 hours post infestation. Ticks were stimulated on a heated roller unit and evaluated. Ticks showing no movement, or very slow and uncoordinated movement were noted as dead.

[2] = tested on: Ctenocephalides felis (flea), Ixodidae (tick), and Aedes aegypti (mosquito); assay: Bio-profiling of C1 racemate and enantiomers, overall conclusions of contact and ingestion assays; conditions: adult ticks, contact assays
Source text: 1-[6-[5-(3,5-dichloro-4-fluoro-phenyl)-5-(trifluoromethyl)-4H-isothiazol-3-yl]spiro[1H-isobenzofuran-3,3′-azetidine]-1′-yl]-3,3,3-trifluoro-propan-1-one (referred to herein as C1 racemate) is an isothiazoline compound consisting of two isomers: (R)-1-[6-[5-(3,5-dichloro-4-fluoro-phenyl)-5-(trifluoromethyl)-4H-isothiazol-3-yl]spiro[1H-isobenzofuran-3,3′-azetidine]-1′-yl]-3,3,3-trifluoro-propan-1-one (referred herein as C1 (R) enantiomer) and (S)-1-[6-[5-(3,5-dichloro-4-fluoro-phenyl)-5-(trifluoromethyl)-4H-isothiazol-3-yl]spiro[1H-isobenzofuran-3,3′-azetidine]-1′-yl]-3,3,3-trifluoro-propan-1-one (referred to herein as C1 (S) enantiomer). The racemic compound and the two enantiomers were tested against adult stages of Ctenocephalides felis (flea) Ixodidae (tick), and Aedes aegypti (mosquito). The compounds were solubilized in DMSO or an acetone/triton solution and dose response curves were generated for the individual compounds.
For evaluation of contact activity, coated-substrate (flea) and coated-vial (tick and mosquito) assay procedures were used. For evaluation of flea ingestion activity, an artificial feeding assay procedure was used. Insecticidal activity was evaluated at various time-points for each assay. Dose response curves were generated in duplicate on three independent test occasions (Trial 1-Trial 3) and EC50 and EC90 values were calculated.
Therefore, mortality correction was not performed in the assays. Calculation of EC50 and EC90 values was performed using XLfit. Both EC50 and EC90 values were calculated using the average of the two replicates for each Trial.
The C1 (R) enantiomer, C1 (S) enantiomer, and the C1 racemate were successfully evaluated against flea, tick, and mosquito contact and ingestion in vitro screening assays.

[3] = 10 mg/kg, Flea Efficacy study, oral 10 mg/kg
[4] = 10 mg/kg, Tick Efficacy study, oral 10 mg/kg
[5] = 20 mg/kg, Flea Efficacy study, oral 20 mg/kg
[6] = 20 mg/kg, Tick Efficacy study, oral 20 mg/kg

O=C(CC(F)(F)F)N1CC2(C1)OCc1cc(C3=NSC(c4cc(Cl)c(F)c(Cl)c4)(C(F)(F)F)C3)ccc12 (racemic) [C1 racemate, 1-[6-[5-(3,5-dichloro-4-fluoro-phenyl)-5-(trifluoromethyl)-4H-isothiazol-3-yl]spiro[1H-isobenzofuran-3,3′-azetidine]-1′-yl]-3,3,3-trifluoro-propan-1-one]
absorption and elimination in dogs ([1]; dogs, oral): well-absorbed compound with an extended elimination half-life in dogs | Cmax ([1]; 10 mg/kg, Mongrel, Flea Efficacy study, oral 10 mg/kg, read-out: Cmax): 3470 ng/mL | AUC(0-t) ([1]; 10 mg/kg, Mongrel, Flea Efficacy study, oral 10 mg/kg): 266 µg·h/mL | AUC(0-inf) ([1]; 10 mg/kg, Mongrel, Flea Efficacy study, oral 10 mg/kg, read-out: NCA AUC0-∞): 361 µg·h/mL | half-life ([1]; 10 mg/kg, Mongrel, Flea Efficacy study, oral 10 mg/kg, read-out: t1/2 (converted)): 23.8 days | Cmax ([1]; 10 mg/kg, Mongrel, Tick Efficacy study, oral 10 mg/kg, read-out: Cmax): 3780 ng/mL | AUC(0-t) ([1]; 10 mg/kg, Mongrel, Tick Efficacy study, oral 10 mg/kg): 344 µg·h/mL | AUC(0-inf) ([1]; 10 mg/kg, Mongrel, Tick Efficacy study, oral 10 mg/kg, read-out: NCA AUC0-∞): 395 µg·h/mL | half-life ([1]; 10 mg/kg, Mongrel, Tick Efficacy study, oral 10 mg/kg, read-out: t1/2 (converted)): 16.4 days | AUC(0-inf) ([1]; 10 mg/kg, range over racemate efficacy studies, at 10 mg/kg, read-out: plasma area under the curve extrapolated to infinity (AUC0-∞)): 361 to 395 µg·h/mL | Cmax ([1]; 10 mg/kg, range over racemate efficacy studies, dosed at 10 mg/kg, read-out: plasma Cmax): 3470 to 3780 ng/mL | CL/F [1, 3]: 0.643 mL/min/kg | Tmax [1, 3]: 0.0417 days | CL/F [1, 4]: 0.502 mL/min/kg | Tmax [1, 4]: 0.125 days | Cmax ([1]; 20 mg/kg, Mongrel, Flea Efficacy study, oral 20 mg/kg, read-out: Cmax): 4740 ng/mL | AUC(0-t) ([1]; 20 mg/kg, Mongrel, Flea Efficacy study, oral 20 mg/kg): 463 µg·h/mL | AUC(0-inf) ([1]; 20 mg/kg, Mongrel, Flea Efficacy study, oral 20 mg/kg, read-out: NCA AUC0-∞): 525 µg·h/mL | half-life ([1]; 20 mg/kg, Mongrel, Flea Efficacy study, oral 20 mg/kg, read-out: t1/2 (converted)): 14.9 days | Cmax ([1]; 20 mg/kg, Mongrel, Tick Efficacy study, oral 20 mg/kg, read-out: Cmax): 6240 ng/mL | AUC(0-t) ([1]; 20 mg/kg, Mongrel, Tick Efficacy study, oral 20 mg/kg): 494 µg·h/mL | AUC(0-inf) ([1]; 20 mg/kg, Mongrel, Tick Efficacy study, oral 20 mg/kg, read-out: NCA AUC0-∞): 674 µg·h/mL | half-life ([1]; 20 mg/kg, Mongrel, Tick Efficacy study, oral 20 mg/kg, read-out: t1/2 (converted)): 23.8 days | CL/F [1, 5]: 0.737 mL/min/kg | Tmax [1, 5]: 0.0417 days | CL/F [1, 6]: 0.693 mL/min/kg | Tmax [1, 6]: 0.0833 days | half-life ([1]; range over racemate efficacy studies, read-out: half-life): 14.9 to 23.8 days | CL/F ([1]; range over racemate efficacy studies): 0.5 to 0.733 mL/min/kg | tlast ([1]; Mongrel, Flea Efficacy study, oral 10 mg/kg): 1032 h | tlast ([1]; Mongrel, Flea Efficacy study, oral 20 mg/kg): 1032 h | tlast ([1]; Mongrel, Tick Efficacy study, oral 10 mg/kg): 1056 h | tlast ([1]; Mongrel, Tick Efficacy study, oral 20 mg/kg): 1056 h | mortality at 0.006 µM (Rhipicephalus sanguineus; 2 h, Rep1): 0% | mortality at 0.006 µM (Rhipicephalus sanguineus; 2 h, Rep2): 0% | mortality at 0.024 µM (Rhipicephalus sanguineus; 2 h, Rep1): 0% | mortality at 0.024 µM (Rhipicephalus sanguineus; 2 h, Rep2): 0% | mortality at 0.098 µM (Rhipicephalus sanguineus; 2 h, Rep1): 0% | mortality at 0.098 µM (Rhipicephalus sanguineus; 2 h, Rep2): 0% | mortality at 0.39 µM (Rhipicephalus sanguineus; 2 h, Rep1): 0% | mortality at 0.39 µM (Rhipicephalus sanguineus; 2 h, Rep2): 0% | mortality at 1.56 µM (Rhipicephalus sanguineus; 2 h, Rep1): 0% | mortality at 1.56 µM (Rhipicephalus sanguineus; 2 h, Rep2): 0% | mortality at 6.25 µM (Rhipicephalus sanguineus; 2 h, Rep1): 0% | mortality at 6.25 µM (Rhipicephalus sanguineus; 2 h, Rep2): 0% | mortality at 25 µM (Rhipicephalus sanguineus; 2 h, Rep1): 30% | mortality at 25 µM (Rhipicephalus sanguineus; 2 h, Rep2): 10% | mortality at 100 µM (Rhipicephalus sanguineus; 2 h, Rep1): 10% | mortality at 100 µM (Rhipicephalus sanguineus; 2 h, Rep2): 0% | mortality at 0.006 µM (Rhipicephalus sanguineus; 6 h, Rep1): 0% | mortality at 0.006 µM (Rhipicephalus sanguineus; 6 h, Rep2): 0% | mortality at 0.024 µM (Rhipicephalus sanguineus; 6 h, Rep1): 0% | mortality at 0.024 µM (Rhipicephalus sanguineus; 6 h, Rep2): 0% | mortality at 0.098 µM (Rhipicephalus sanguineus; 6 h, Rep1): 0% | mortality at 0.098 µM (Rhipicephalus sanguineus; 6 h, Rep2): 0% | mortality at 0.39 µM (Rhipicephalus sanguineus; 6 h, Rep1): 10% | mortality at 0.39 µM (Rhipicephalus sanguineus; 6 h, Rep2): 0% | mortality at 1.56 µM (Rhipicephalus sanguineus; 6 h, Rep1): 0% | mortality at 1.56 µM (Rhipicephalus sanguineus; 6 h, Rep2): 0% | mortality at 6.25 µM (Rhipicephalus sanguineus; 6 h, Rep1): 50% | mortality at 6.25 µM (Rhipicephalus sanguineus; 6 h, Rep2): 20% | mortality at 25 µM (Rhipicephalus sanguineus; 6 h, Rep1): 90% | mortality at 25 µM (Rhipicephalus sanguineus; 6 h, Rep2): 100% | mortality at 100 µM (Rhipicephalus sanguineus; 6 h, Rep1): 100% | mortality at 100 µM (Rhipicephalus sanguineus; 6 h, Rep2): 100% | mortality at 0.006 µM (Rhipicephalus sanguineus; 12 h, Rep1): 0% | mortality at 0.006 µM (Rhipicephalus sanguineus; 12 h, Rep2): 0% | mortality at 0.024 µM (Rhipicephalus sanguineus; 12 h, Rep1): 0% | mortality at 0.024 µM (Rhipicephalus sanguineus; 12 h, Rep2): 0% | mortality at 0.098 µM (Rhipicephalus sanguineus; 12 h, Rep1): 0% | mortality at 0.098 µM (Rhipicephalus sanguineus; 12 h, Rep2): 0% | mortality at 0.39 µM (Rhipicephalus sanguineus; 12 h, Rep1): 10% | mortality at 0.39 µM (Rhipicephalus sanguineus; 12 h, Rep2): 0% | mortality at 1.56 µM (Rhipicephalus sanguineus; 12 h, Rep1): 90% | mortality at 1.56 µM (Rhipicephalus sanguineus; 12 h, Rep2): 50% | mortality at 6.25 µM (Rhipicephalus sanguineus; 12 h, Rep1): 80% | mortality at 6.25 µM (Rhipicephalus sanguineus; 12 h, Rep2): 80% | mortality at 25 µM (Rhipicephalus sanguineus; 12 h, Rep1): 90% | mortality at 25 µM (Rhipicephalus sanguineus; 12 h, Rep2): 100% | mortality at 100 µM (Rhipicephalus sanguineus; 12 h, Rep1): 100% | mortality at 100 µM (Rhipicephalus sanguineus; 12 h, Rep2): 100% | potency against ticks [2]: excellent potency against ticks
